In US9808434B2, “Compound for treating cancer and diabetes” (CITY OF HOPE, priority 2011, dated 2017):

Assays:
[1] = test system: Stat3, HIF-1α; test: Stat3 phosphorylation and HIF-1α expression in SKOV3, immunoblotting; type: cell-based, human; conditions: SKOV3, 24 hours, 1-10 μM
Method: SKOV3 cells were incubated with various concentrations of COH-SR4 (1˜10 μM) for 24 hours. Whole-cell lysates were analyzed by immunoblotting with antibodies against phosphorylated and total form of Stat3, Akt and MAPK, and HIF-1α. GAPDH was used as a loading control.

[2] = test system: PBT028; test: Glioma ATP viability assay, PBT028; type: cell-based; conditions: Table 1; 72 hours
Method: Cells of each cell line (U251, U87, PBT-017, PBT018, PBT003 and PBT028) were treated with various concentrations (0˜100 μM) of COH-SR4 for 72 hours. Cell viabilities were determined by ATP viability assays. Data were represented as a ratio to vehicle (DMSO) control, and plotted as mean±SEM (n=12) obtained from 2˜3 experiments (FIG. 34A).

[3] = test system: HRE promoter; test: HRE promoter luciferase reporter in U251; type: cell-based; conditions: U251, 1 or 3 μM, 24 hours, normoxic and hypoxic
Method: U251 cells were transfected with plasmids expressing luciferase reporter genes driven by a HRE reporter plasmid containing five copies of the HRE site (5×HRE). Transfected cells were then incubated with COH-SR4 at various concentrations (0, 1, or 3 μM) for 24 hours and assayed for luciferase activities. Data were represented as a ratio to vehicle control that was treated by DMSO.

[4] = test system: SK-Mel-31; test: Colony formation assay, SK-Mel-31; type: cell-based, human; conditions: 5 μM
Method: Cell survival was evaluated using a standard colony-forming assay. In total, 1×10^5 cells/mL were incubated with COH-SR4 (1.5 μM or 5 μM) or elesclomol (5 μM) for 24 h, and aliquots of 50 or 100 μL were added to 60 mm size petri dishes, containing 4 mL culture medium. After 7 or 10 days, adherent colonies were fixed, stained with 0.5% methylene blue for 30 min and colonies were counted using the Innotech Alpha Imager HP (91).

[5] = test system: H520 cells; test: MTT assay, H520; type: cell-based; conditions: Homo sapiens, NCI-H520, 48 h
Method: Cell density measurements were performed using a hemocytometer to count reproductive cells resistant to staining with trypan blue. Approximately 20,000 cells were plated into each well of 96-well flat-bottomed micro-titer plates. After 12 h or 24 h incubation at 37° C., medium containing either COH-SR4 (ranging 0-200 μM) or elesclomol (ranging 0-20 μM) were added to the cells. After 24 h, 48 h or 96 h incubation, 20 μL of 5 mg/mL MTT were introduced to each well and incubated for 2 h. The plates were centrifuged and medium was decanted. Cells were subsequently dissolved in 100 μl DMSO with gentle shaking for 2 h at room temperature, followed by measurement of OD570 (91).
The effect of COH-SR4 was first examined in a NCI panel of cancer cell lines, the results of which indicated good activity of COH-SR4 towards lung cancer (FIG. 78A). […] Values are presented as mean±SD from two separate determinations with eight replicates each (n=16) (FIG. 78B). […] Standard colony-forming assay was performed and the colonies were counted using Innotech Alpha Imager HP. […] TUNEL assay was performed using Promega fluorescence detection kit and examined using Zeiss LSM 510 META laser-scanning fluorescence microscope with filters 520 and 620 nm. […]

[6] = test system: CDK2, CDK4, cyclin A, cyclin B1, cyclin E1, p27; test: Cell cycle regulator proteins in H358 and H520, Western-blot; type: cell-based, human; conditions: 24 h
Method: Cell or tissue proteins were extracted with cell lysis buffer (Cell Signaling Technology) and protein concentration was determined using the DC Protein Assay kit (Bio-Rad, Hercules, Calif., USA). Equal amount of proteins (˜40 μg) were loaded onto 4-15% Criterion TGX gels (Bio-Rad, Hercules, Calif.), resolved by SDS-PAGE electrophoresis, and then transferred onto nitrocellulose membranes for immunoblotting. Membranes were blocked with 5% skimmed milk in Tris-buffered saline containing 0.05% Tween 20 before incubation overnight at 4° C. with desired primary antibodies. Immuno-reactive proteins were visualized by peroxidase-labeled secondary antibodies and ECL system (Western Lightning Chemiluminescence Reagent, Perkin-Elmer, Mass., USA). Equal loading of proteins was confirmed by stripping and re-probing the membranes with either β-actin or GAPDH antibodies. Band intensities were quantified using a densitometer (Quantity One, Bio-Rad, Hercules, Calif.).
In the context of the elevation of GSTs in lung cancer, the impact of COH-SR4 on the catalytic activity of GSTs towards 1-chloro 2,4-dinitro benzene (CDNB), a model substrate used for GST activity was analyzed. GST activity towards 1-chloro 2,4-dinitro benzene (CDNB) and its inhibition by COH-SR4 was performed in 28000×g crude supernatant prepared from H1417, H1618, H520 and H358 cells. […]

O=C(Nc1cc(Cl)cc(Cl)c1)Nc1cc(Cl)cc(Cl)c1 [COH-SR4, 1,3-bis(3,5-dichlorophenyl) urea]
phosphorylation of Stat3 and HIF-1α protein expression [1]: inhibited phosphorylation of Stat3 protein and HIF-1α protein expression
IC50 [2]: 2000 nM
luciferase expression driven by HRE promoter [3]: inhibited luciferase expression driven by HRE promoter
colony formation [4]: 40±4%
IC50 [5]: 2400 ± 300 nM
protein level of p27 [6]: up-regulated
protein levels of CDK2, CDK4, cyclin A, cyclin B1 and cyclin E1 [6]: decreased the protein levels of CDK2, CDK4, cyclin A, cyclin B1 and cyclin E1
